In patent US20230330251A1, “METHODS FOR TREATING CANCERS WITH ANTIBODY DRUG CONJUGATES (ADC) THAT BIND TO 191P4D12 PROTEINS” (AGENSYS, INC., priority 2020, published 2023):

Tested on: subjects with previously treated locally advanced or metastatic urothelial cancer
Assay: EV-301: overall response rate, complete/partial response, disease control rate per RECIST V1.1 (response evaluable set)
Format: in vivo, human
Excerpt: Subjects will be evaluated for response according to the RECIST V1.1. Imaging for both arms will be performed at baseline and every 56 days (±7 days) from the first dose of study treatment throughout the study until PFS1 is documented by radiological disease progression or the subject is lost to follow-up, death, withdraws study consent or starts a subsequent anti-cancer therapy.
CR is defined as disappearance of all target and nontarget lesions. Any pathological lymph nodes (whether target or nontarget) must have reduction in short axis to <10 mm from baseline measurement.
PR is defined as at least a 30% decrease in the sum of diameters (longest for nonnodal lesions, short axis for nodal lesions) of target lesions taking as reference to the baseline sum of diameters.
SD is defined as neither sufficient decrease to qualify for PR nor sufficient increase to qualify for progressive disease taking as reference the smallest sum of diameters while on study drug.
PD is defined as at least a 20% increase in the sum of diameters (longest for nonnodal lesions, short axis for nodal lesions) of the target lesions taking as reference the smallest sum on study (this includes the baseline sum if that is the smallest on study). […] The appearance of 1 or more new lesions is also considered progression.
The response evaluable set (RES) is defined as all subjects in FAS and with measurable disease at baseline and had at least 6 months follow up since randomization. RES will be used for primary efficacy analysis of response related endpoints, e.g., ORR and DCR.
The overall response rate (ORR) is defined as the proportion of subjects with complete or partial objective response based on the RECIST V1.1. The comparison of ORR between Arm A and Arm B was performed using a stratified CMH test. Same stratification factors used in time to event analyses will be used for the stratified CMH test. […] In addition, ORR for each arm was estimated and corresponding 95% confidence interval will be constructed. The primary analysis was performed using the RES.
The DCR is defined as the proportion of subjects with a complete or partial objective response or a stable disease based on RECIST V1.1. The comparison of DCR between Arm A and Arm B was performed using a stratified CMH test. Same stratification factors used in time to event analyses were used for the stratified CMH test. […] In addition, DCR for each arm was estimated and corresponding 95% confidence interval will be constructed. The primary analysis was performed using the RES.

[1] = All, Response-Evaluable Population

enfortumab vedotin
ORR, EV vs SC Absolute Difference [1]: 22.7%
Overall response rate (ORR), % [1]: 40.6%
Overall response rate (ORR), n/N [1]: 117/288
Best overall response: Complete response, % (RECIST v1.1, RES): (4.9) %
Best overall response: Not evaluable, % (RECIST v1.1, RES): (12.8) %
Best overall response: Partial response, % (RECIST v1.1, RES): (35.8) %
Best overall response: Progressive disease, % (RECIST v1.1, RES): (15.3) %
Best overall response: Stable disease, % (RECIST v1.1, RES): (31.3) %
Time to response, Median (RES): 1.87 months
Overall Response Rate (ORR), Confirmed, % (RES, investigator assessment, N = 288 EV, 296 chemotherapy): (40.6%)
Disease control rate, Patients, % (RES, N = 288 EV, 296 chemotherapy): (71.9%)
complete response, number of patients (of 288 (enfortumab vedotin) / of 296 (chemotherapy)): 14
Disease control (response-evaluable population): 71.9%
complete response, % of the patients (response-evaluable population): 4.9%
